Measured values reported in US20060074108A1, “Matrix metalloprotease (MMP) inhibitors and their application in cosmetic and pharmaceutical composition” (Bioderm Research, priority 2004, published 2006).

Legend:
[1] = system: TRP-2; experiment: tyrosinase enzyme based model: inhibition of color formation from the action of TRP-2 on tyrosine, spectrophotometric rate kinetics; assay type: biochemical; settings: TRP-2 model extended as predictive to MMP-2 and MMP-9 inhibition, wound healing application
Description: It is based on the inhibition of a tyrosinase enzyme based model system, for example Canters et al., “Kinetic and paramagnetic NMR investigations of the inhibition of Streptomyces antibioticus tyosinase”, Journal of Molecular Catalysis, B: Enzymatics, vol. 8, 27-35 (2000). Tyrosinase is a copper-based monooxygenase enzyme that catalyzes the hydroxylation of monophenols (hydroxybenzenes) and the oxidation of ortho-diphenols to ortho-quinones. The active-site of tyrosinase is known to contain two copper ions (CuA and CuB). […] The regions around these copper-binding ligands are well conserved. Moreover, the distance between these two copper ions is […] [(van Amsterdam et al., Angewandte Chemie, 42: 62-64 (2003); Bubacco et al., J. Biol. Chem., 181-194 (2003)]. At least two proteins related to tyrosinase are known to exist in mammals, and include TRP-1, which is responsible for the conversion of 5,6-dihydroxyindole-2-carboxylic acid (DHICA) to indole-5,6-quinone-2-carboxylic acid (IQCA) or indole-5,6-quinone (IQ); and TRP-2, which is the melanogenic enzyme DOPAchrome tautomerase that catalyzes the conversion of DOPAchrome to DHICA. TRP-2 differs from tyrosinases and TRP-1 in that it binds two zinc ions instead of copper. Other proteins that belong to this family are plant polyphenol oxidases (PPO), which catalyze the oxidation of mono- and ortho-diphenols to ortho-diquinone. […] The colorless tyrosine is converted into yellow/orange colored ortho-diquinone of tyrosine, which is spectrophotometrically quantitated and its rate kinetics thus established.

[2] = molecular target: T1, MMP-1 (Homo sapiens, UniProt P03956); settings: in words; cited from earlier work
T1 sequence (P03956 100-469): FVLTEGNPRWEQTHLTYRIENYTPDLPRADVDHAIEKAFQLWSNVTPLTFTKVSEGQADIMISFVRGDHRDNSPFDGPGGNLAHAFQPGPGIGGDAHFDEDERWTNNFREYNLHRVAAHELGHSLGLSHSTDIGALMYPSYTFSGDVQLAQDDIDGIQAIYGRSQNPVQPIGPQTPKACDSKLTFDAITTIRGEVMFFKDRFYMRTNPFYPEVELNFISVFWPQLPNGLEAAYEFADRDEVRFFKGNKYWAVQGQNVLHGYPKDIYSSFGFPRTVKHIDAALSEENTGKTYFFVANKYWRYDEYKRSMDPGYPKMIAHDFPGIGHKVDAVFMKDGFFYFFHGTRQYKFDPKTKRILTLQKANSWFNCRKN

[3] = molecular target: MMP-13 (Homo sapiens, UniProt P45452); settings: in words; cited from earlier work
[4] = molecular target: MMP-9 (Homo sapiens, UniProt P14780); settings: in words; cited from earlier work
MMP-9, sequence (P14780 94-707, species assumed): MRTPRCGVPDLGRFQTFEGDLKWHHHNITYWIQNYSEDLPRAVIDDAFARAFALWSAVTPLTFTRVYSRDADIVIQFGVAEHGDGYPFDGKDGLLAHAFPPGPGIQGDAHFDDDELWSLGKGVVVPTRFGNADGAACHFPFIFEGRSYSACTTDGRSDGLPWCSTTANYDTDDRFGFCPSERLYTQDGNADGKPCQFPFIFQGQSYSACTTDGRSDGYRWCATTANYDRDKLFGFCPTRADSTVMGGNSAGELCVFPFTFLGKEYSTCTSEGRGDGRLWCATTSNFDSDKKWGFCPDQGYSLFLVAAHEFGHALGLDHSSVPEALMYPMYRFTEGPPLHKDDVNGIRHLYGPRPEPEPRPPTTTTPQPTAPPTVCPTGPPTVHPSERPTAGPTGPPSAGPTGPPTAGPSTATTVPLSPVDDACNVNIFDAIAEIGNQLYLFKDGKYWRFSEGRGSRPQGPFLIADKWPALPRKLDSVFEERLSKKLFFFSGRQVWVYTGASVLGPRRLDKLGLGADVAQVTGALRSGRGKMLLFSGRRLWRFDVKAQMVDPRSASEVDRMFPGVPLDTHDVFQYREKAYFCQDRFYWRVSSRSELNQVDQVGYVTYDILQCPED

SMILES | order of efficacy (oxime derivatives) [1] | order of efficacy (acetophenones) [1] | further results
CC(=NO)c1c(O)cccc1O [2,6-Dihydroxyacetophenone Oxime] | 2,6-Dihydroxyacetophenone Oxime>2,5-Dihydroxyacetophenone Oxime |  | 
CC(=O)c1cc(O)ccc1O [2,5-Dihydroxyacetophenone] |  | 2,6-Dihydroxyacetophenone>2,5-Dihydroxyacetophenone>2,4-Dihydroxyacetophenone | 
COc1ccc(C(C)=O)c(O)c1 [2-Hydroxy-4-methoxyaceophenone] |  | 2,4-Dihydroxyacetophenone>2-Hydroxy-4-methoxyaceophenone >>>Arbutin | 
COc1ccc(C(C)=NO)c(O)c1 [2-Hydroxy-4-methoxyaceophenone Oxime] | 2,4-Dihydroxyacetophenone Oxime>2-Hydroxy-4-methoxyaceophenone Oxime |  | 
CC(=O)c1c(O)cccc1O [2,6-Dihydroxyacetophenone] |  | 2,6-Dihydroxyacetophenone>2,5-Dihydroxyacetophenone | 
O=C(NCCCCN1CCOCC1)c1cc2ccccc2o1 [CL-82198] |  |  | activity against MMP-1 [2]: complete lack of activity; inhibition of MMP-13 [3]: weak inhibition; activity against MMP-9 [4]: complete lack of activity
OC[C@H]1O[C@@H](Oc2ccc(O)cc2)[C@H](O)[C@@H](O)[C@@H]1O [Arbutin, reference compound] |  | 2-Hydroxy-4-methoxyaceophenone >>>Arbutin | 
CC(=O)c1ccc(O)cc1O [2,4-Dihydroxyacetophenone] |  | 2,5-Dihydroxyacetophenone>2,4-Dihydroxyacetophenone>2-Hydroxy-4-methoxyaceophenone | 
CC(=NO)c1ccc(O)cc1O [2,4-Dihydroxyacetophenone Oxime] | 2,5-Dihydroxyacetophenone Oxime>2,4-Dihydroxyacetophenone Oxime>2-Hydroxy-4-methoxyaceophenone Oxime |  | 
Cc1cc(C)c(N(Cc2ccccc2)S(=O)(=O)c2ccc(OCCNC(=O)c3cc4ccccc4o3)cc2)c(C(=O)NO)c1 [WAY-170523] |  |  | inhibition of MMP-13 [3]: potent
CC(=NO)c1cc(O)ccc1O [2,5-Dihydroxyacetophenone Oxime] | 2,6-Dihydroxyacetophenone Oxime>2,5-Dihydroxyacetophenone Oxime>2,4-Dihydroxyacetophenone Oxime |  | 
